From patent US20070099996A1, “Pharmaceutical compositions of acitretin” (priority 2003, published 2007)

Columns and labels:
[1] = cited from earlier work
[2] = Comparative particle size distribution; type: physicochemical
Text: Comparative particle size distribution of unmilled acitretin, air-jet milled acitretin, oil-milled and wet milled solid dispersion of acitretin.

Row | SMILES | Solubility in water [1] | Particle size D10 [2] [microns] | Particle size D50 [2] [microns] | Particle size D90 [2] [microns]
1 | COc1cc(C)c(/C=C/C(C)=C/C=C/C(C)=C/C(=O)O)c(C)c1C [Acitretin] | practically insoluble | – | – | –
2 | COc1cc(C)c(/C=C/C(C)=C/C=C/C(C)=C/C(=O)O)c(C)c1C [Air-jet milled acitretin, acitretin] | – | 2.13 | 5.51 | 14.48
3 | COc1cc(C)c(/C=C/C(C)=C/C=C/C(C)=C/C(=O)O)c(C)c1C [Unmilled acitretin, acitretin] | – | 11.14 | 39.59 | 105.0
